{
  "source": "patent US20030053966A1",
  "about": "“Insoluble organic UV screening agents of aryl vinylene ketone type, and cosmetic use thereof” (priority 2001, published 2003)",
  "key": {"[1]": {"assay": "UV absorption of the compound in solution", "type": "physicochemical"}, "[2]": {"details": "solution in DMSO/CH2Cl2, at λmax"}},
  "data": [
    {"smiles": "CCNS(=O)(=O)CC12CCC(C(=Cc3ccc(C=C4C(=O)C5(CS(=O)(=O)NCC)CCC4C5(C)C)cc3)C1=O)C2(C)C", "note": "[Example 1, 1,4-phenylenebis(ethyl 3,3′-methylidenecamphor-10,10′-sulphonamide)]", "values": [
      {"measurement": "λmax", "setting": "[1]; solution in DMSO/CH2Cl2", "value": 342, "unit": "nm"},
      {"measurement": "E1%", "setting": "[1]; [2]", "value": 654},
      {"measurement": "εmax", "setting": "[1]; [2]", "value": 40350}
    ]},
    {"smiles": "CCCCC(CC)CNS(=O)(=O)CC12CCC(C(=Cc3ccc(C=C4C(=O)C5(CS(=O)(=O)NCC(CC)CCCC)CCC4C5(C)C)cc3)C1=O)C2(C)C", "note": "(stereo not drawn) [Example 2, 1,4-phenylenebis(2-ethylhexyl 3,3′-methylidenecamphor-10,10′-sulphonamide)]", "values": [
      {"measurement": "λmax", "setting": "[1]; solution in CH2Cl2", "value": 342, "unit": "nm"},
      {"measurement": "E1%", "setting": "[1]; solution in CH2Cl2, at λmax", "value": 522},
      {"measurement": "εmax", "setting": "[1]; solution in CH2Cl2, at λmax", "value": "41 000"}
    ]},
    {"smiles": "CC12CCC(/C(=C\\c3cccc(/C=C4/C(=O)C5(C)CCC4C5(C)C)c3)C1=O)C2(C)C", "note": "[Example 3, 1,3-phenylenebis(3-methylidenecamphor)]", "values": [
      {"measurement": "melting point", "value": 152, "unit": "°C"}
    ]},
    {"smiles": "CC12CCC(/C(=C\\c3ccc(/C=C4/C(=O)C5(C)CCC4C5(C)C)cc3)C1=O)C2(C)C", "note": "[Example 5, 1,4-phenylenebis(3-methylidenecamphor)]", "values": [
      {"measurement": "melting point", "value": 234, "unit": "°C"}
    ]},
    {"smiles": "Cc1c(C)c(C=C2C(=O)C3(C)CCC2C3(C)C)c(C)c(C)c1C=C1C(=O)C2(C)CCC1C2(C)C", "note": "[Example 6, (2,3,5,6-tetramethyl)-1,4-phenylenebis-(3-methylidenecamphor)]", "values": [
      {"measurement": "λmax", "setting": "[1]; solution in CH2Cl3", "value": 286, "unit": "nm"},
      {"measurement": "E1%", "setting": "[1]; solution, at λmax", "value": 270},
      {"measurement": "εmax", "setting": "[1]; solution, at λmax", "value": "12 200"}
    ]},
    {"smiles": "C[Si](C)(C)CCCOc1ccc(/C=C2\\CC/C(=C\\c3ccc(OCCC[Si](C)(C)C)cc3)C2=O)cc1", "note": "[Example 8, 2,5-bis[4-(3-trimethylsilanylpropyloxy)-benzylidene]cyclopentanone]", "values": [
      {"measurement": "λmax", "setting": "[1]; solution in CHCl3", "value": 391, "unit": "nm"},
      {"measurement": "E1%", "setting": "[1]; solution in CHCl3, at λmax", "value": 940},
      {"measurement": "εmax", "setting": "[1]; solution in CHCl3, at λmax", "value": "49 100"},
      {"measurement": "melting point", "value": "205 to 207", "unit": "°C"}
    ]}
  ]
}
